What was measured:
Format in all cases: cell-based, Human
Jurkat cells [1] = experiment: 24-hour monitoring of extracellular ROS levels of drug-treated Jurkat cells using the nanowire biosensor; conditions: t=6 hours, normalized by number of live cells
Method: For measurements of cellular metabolites/activity, cells were cultured in the chip, namely, in the culture compartment thereof (see, for example, FIG. 1A), while placing the chip in an incubator during measurements. A sample was introduced to the sensing compartment at 20 μl min^-1 by using a syringe pump. Human T lymphocytes, Jurkat (TIB-152, ATCC), were cultured and incubated at 37° C. under a humidified 5% CO2 atmosphere. The culture medium used was RPMI 1640 medium (52400, GIBCO) with 10% fetal bovine serum (FBS; 04-001-1A, Biological Industry) and 1% penicillin/streptomycin (15140, GIBCO). During experiments, cells were re-suspended in phenol red-free medium (11835-063, GIBCO) in the presence or absence of a drug, either methotrexate hydrate (MTX; […], SIGMA) or 2-deoxy-D-glucose (2DG; […], SIGMA), at a density of 1×10^6 cells/ml. Cellular samples were dispensed into the wells of the sensing chip (see FIGS. 1A and 1B) in an incubator. 24-hour monitoring of metabolic activity of drug-treated Jurkat cells by measuring extracellular ROS levels using the nanowire biosensor, was performed and the obtained data is presented in FIGS. 6A-G. Measured ROS levels were normalized by the number of live cells.

Jurkat cells [2] = experiment: pH sensing of drug-treated Jurkat cells (reductant-added medium, nanowire FET); conditions: 24-hour monitoring, culture medium
Text: A conversion of the modified FET into a pH sensor was achieved by using a reductant-added solution. After supplementing a culture medium with 0.1% v/v DEHA to reduce the modified FET surface, surface proton density varied by protonation or by deprotonation dominantly changes the measured current.
For pH sensing, 0.1% v/v DEHA was supplemented in the sensing medium to reduce the 9,10-anthraquinone monolayer on the FET surface to obtain 9,10-dihydroxyanthracene (see also FIG. 1d) and H2O2 simultaneously. Therefore, no significant amount of H2O2 in a DEHA-supplemented medium altered a measured signal. As a result, surface proton density, varied by protonation or by deprotonation, dominantly changes an acquired signal.

Jurkat cells [3] = experiment: Cell proliferation rate / viability of drug-treated Jurkat cells (trypan blue, hemocytometer); conditions: for cell viability: 24-hour viability observation
Method: Human T lymphocytes, Jurkat (TIB-152, ATCC), were cultured and incubated at 37° C. under a humidified 5% CO2 atmosphere. The culture medium used was RPMI 1640 medium (52400, GIBCO) with 10% fetal bovine serum (FBS; 04-001-1A, Biological Industry) and 1% penicillin/streptomycin (15140, GIBCO). During experiments, cells were re-suspended in phenol red-free medium (11835-063, GIBCO) in the presence or absence of a drug, either methotrexate hydrate (MTX; […], SIGMA) or 2-deoxy-D-glucose (2DG; […], SIGMA), at a density of 1×10^6 cells/ml. Cell viability was estimated by using a hemocytometer to count trypan blue-stained cells. Relative cell count, presented in FIGS. 6B and 6E-6F, is a ratio of the cell count at t=24 hours to the initial cell count.

Jurkat cells [4] = experiment: Extracellular lactate level of 2DG-treated Jurkat cells (lactate oxidase, nanowire biosensor); conditions: after 24 hours
Method: For lactate sensing, 0.1 unit/ml of lactate oxidase (LOX; L0638, SIGMA) was added in phenol red-free medium to convert lactate to pyruvate and H2O2 before lactate reaches the FET array (as depicted in FIG. 1D).
During experiments, cells were re-suspended in phenol red-free medium (11835-063, GIBCO) in the presence or absence of a drug, either methotrexate hydrate (MTX; M8407, SIGMA) or 2-deoxy-D-glucose (2DG; D6134, SIGMA), at a density of 1×10^6 cells/ml.
The correlation between extracellular lactate level of 2DG-treated Jurkat cells and a resultant cell proliferation rate after 24 hours was investigated.

| Compound | ROS level (Jurkat cells [1]) | pH of treated cells versus control (Jurkat cells [2]) | cell viability (Jurkat cells [3]) | cell proliferation rate (Jurkat cells [3]; after 24 hours, relative cell count = count at t=24 hours / initial count) | cellular lactate secretion (Jurkat cells [4]) |
| --- | --- | --- | --- | --- | --- |
| O=CC[C@@H](O)[C@H](O)[C@H](O)CO [2DG, 2-deoxy-D-glucose] | noticeable decrease | more basic than the control | anti-proliferative activity | reduced | decreased |
| CN(Cc1cnc2nc(N)nc(N)c2n1)c1ccc(C(=O)N[C@@H](CCC(=O)O)C(=O)O)cc1 [MTX, methotrexate hydrate] | noticeable decrease |  | anti-proliferative activity |  |  |

From patent US11275078B2, “Method and system for sensing” (Ramot at Tel-Aviv University Ltd., priority 2015, dated 2022)
